Test results: article PMC9221509, “Discovery of a Novel Antimicrobial Peptide, Temporin-PKE, from the Skin Secretion of Pelophylax kl. esculentus, and Evaluation of Its Structure-Activity Relationships” (Biomolecules, 2022)
Values after ≈ are worked out from the molar mass of the structure shown. Each block holds one molecule with its values, some of them ahead of it.

How the values were obtained:
Assay in all cases: microbe, parasite or virus in culture
[1] = test system: C. albicans (ATCC CRM 10231); format: cell-based, Candida albicans; settings: 15 replicates in three independent assays
Description: (§1) The antimicrobial activities of peptides were evaluated against the Gram-positive bacteria, S. aureus (ATCC 6538), methicillin-resistant Staphylococcus aureus (MRSA) (NCTC 12493), Enterococcus faecalis (E. faecalis) (NCTC 12697); the Gram-negative bacteria, E. coli (ATCC CRM 8739), Klebsiella pneumoniae (K. pneumoniae) (ATCC 43816), Pseudomonas aeruginosa (P. aeruginosa) (ATCC CRM 9027); and the yeast, Candida albicans (C. albicans) (ATCC CRM 10231). Clinical isolates of MRSA (B042 V2E1 A), E. coli (ATCC BAA-2340), K. pneumoniae (ATCC BAA-1705), and P. aeruginosa (B004 V2S2 B) were also used to determine their antimicrobial activities. The suspension of microorganisms in the logarithmic growth phase with a specific final density (Gram-negative and Gram-positive bacteria: 5 × 10^5 CFU/mL; yeast: 1 × 10^6 CFU/mL) was incubated with different peptide concentrations from 1 µM to 512 µM at 37 °C for 24 h. PBS was used as the negative control, and norfloxacin and amphotericin B were selected as the positive control for bacteria and yeast, respectively. Since the Norfloxacin had weak activities against P. aeruginosa (B004 V2S2 B) and K. pneumoniae (ATCC BAA 1705), gentamicin was used as the positive control for these two bacterial strains. The absorbance of each well was obtained using a microplate reader (EL808, Biolise BioTek, Winooski, VT, USA) set at 550 nm wavelength. The MIC value was the lowest concentration of a peptide that inhibits visible bacterial growth. Once the MIC values were determined, an aliquot from the bacterial culture exposed to the peptide at or above its MIC value was inoculated on a Mueller Hinton agar (MHA) and was incubated at 37 for 18 h. The MBC value was the lowest concentration of a peptide that kills 99.9% of bacteria.

[2] = test system: K. pneumoniae (ATCC BAA-1705); format: cell-based, Klebsiella pneumoniae; settings: Klebsiella pneumoniae, ATCCBAA1705, clinical strain, 15 replicates in three independent assays
Description: as §1

[3] = test system: P. aeruginosa (B004 V2S2 B); format: cell-based, Pseudomonas aeruginosa; settings: Pseudomonas aeruginosa, clinical strain, 15 replicates in three independent assays
Description: as §1

[4] = test system: S. aureus (ATCC 6538); format: cell-based, Staphylococcus aureus; settings: Staphylococcus aureus, ATCC6538, 15 replicates in three independent assays
Description: as §1

[5] = test system: MRSA (B042 V2E1 A); format: cell-based, methicillin-resistant Staphylococcus aureus; settings: Staphylococcus aureus, MRSA, clinical strain, 15 replicates in three independent assays
Description: as §1

[6] = test system: MRSA (NCTC 12493); format: cell-based, methicillin-resistant Staphylococcus aureus; settings: Staphylococcus aureus, 15 replicates in three independent assays
Description: as §1

[7] = test system: K. pneumoniae (ATCC 43816); format: cell-based, Klebsiella pneumoniae; settings: Klebsiella pneumoniae, ATCC43816, 15 replicates in three independent assays
Description: as §1

[8] = test system: E. faecalis (NCTC 12697); format: cell-based, Enterococcus faecalis; settings: Enterococcus faecalis, NCTC12697, 15 replicates in three independent assays
Description: as §1

[9] = test system: E. coli (ATCC BAA-2340); format: cell-based, Escherichia coli; settings: Escherichia coli, ATCCBAA2340, clinical strain, 15 replicates in three independent assays
Description: as §1

[10] = test system: E. coli (ATCC CRM 8739); format: cell-based, Escherichia coli; settings: Escherichia coli, 15 replicates in three independent assays
Description: as §1

[11] = test system: P. aeruginosa (ATCC CRM 9027); format: cell-based, Pseudomonas aeruginosa; settings: Pseudomonas aeruginosa, 15 replicates in three independent assays
Description: as §1

[12] = 5 × 10^5 CFU/mL, 37 °C, 24 h, 1-512 µM, absorbance 550 nm, read-out: MIC
[13] = aliquot plated on MHA, 18 h, kills 99.9%, read-out: MBC

MIC ([1]; yeast 1 × 10^6 CFU/mL, 37 °C, 24 h, 1-512 µM, absorbance 550 nm, read-out: MIC): 4 µM (≈ 3.7 µg/mL)
Structure (SMILES): C[C@@H]1[C@H](O)[C@@H](C)/C=C/C=C/C=C/C=C/C=C/C=C/C=C/[C@H](O[C@@H]2O[C@H](C)[C@@H](O)[C@H](N)[C@@H]2O)C[C@@H]2O[C@](O)(C[C@@H](O)C[C@@H](O)[C@H](O)CC[C@@H](O)C[C@@H](O)CC(=O)O[C@H]1C)C[C@H](O)[C@H]2C(=O)O [amphotericin B, reference compound]
MBC ([1]; Candida albicans, aliquot plated on MHA, 18 h, kills 99.9%, read-out: MBC): 4 µM (≈ 3.7 µg/mL)

MIC [2, 12]: 2 µM (≈ 0.955 µg/mL)
MIC [3, 12]: 1 µM (≈ 0.478 µg/mL)
Structure (SMILES): CNC(C)C1CCC(N)C(OC2C(N)CC(N)C(OC3OCC(C)(O)C(NC)C3O)C2O)O1 (stereo not shown) [Gentamicin, reference compound]
MBC [2, 13]: 2 µM (≈ 0.955 µg/mL)
MBC [3, 13]: 1 µM (≈ 0.478 µg/mL)

MIC [4, 12]: 2 µM (≈ 0.639 µg/mL)
MIC [5, 12]: 2 µM (≈ 0.639 µg/mL)
MIC [6, 12]: 2 µM (≈ 0.639 µg/mL)
MIC [7, 12]: 2 µM (≈ 0.639 µg/mL)
MIC [8, 12]: 4 µM (≈ 1.28 µg/mL)
MIC [9, 12]: 2 µM (≈ 0.639 µg/mL)
MIC [10, 12]: 1 µM (≈ 0.319 µg/mL)
MIC [11, 12]: 2 µM (≈ 0.639 µg/mL)
Structure (SMILES): CCn1cc(C(=O)O)c(=O)c2cc(F)c(N3CCNCC3)cc21 [Norfloxacin, reference compound]
MBC ([4]; aliquot plated on MHA, 18 h, kills 99.9% of bacteria, read-out: MBC): 2 µM (≈ 0.639 µg/mL)
MBC [5, 13]: 2 µM (≈ 0.639 µg/mL)
MBC [6, 13]: 2 µM (≈ 0.639 µg/mL)
MBC [7, 13]: 2 µM (≈ 0.639 µg/mL)
MBC [8, 13]: 4 µM (≈ 1.28 µg/mL)
MBC [9, 13]: 2 µM (≈ 0.639 µg/mL)
MBC [10, 13]: 1 µM (≈ 0.319 µg/mL)
MBC [11, 13]: 2 µM (≈ 0.639 µg/mL)
